System: S. typhimurium TA100
Assay: Colormetric Ames Test Procedure
Format: cell-based
Conditions: at the concentration given per compound (1.39-360.1 μM), 5 days at 37° C.
Protocol: The following procedures were performed aseptically. First, the day before the assay, as late as possible in the day, the vial labeled “G” Nutrient Broth was dispensed into the vial labeled S. typhimurium TA100 (lyophilized). The mixture was incubated over night at 37° C. for about 16-18 hours.
In appropriate vial, about 50 mg of the test compound was weighed out. About 1 mL of DMSO was added, and the mixture was filter sterilized with 25 mm syringe filter into a sterile tube. The concentration of DMSO was noted.
In a sterile 50 mL tube, about 15 mL of sterile Davis Mingioli Salt (see Davis & Mingioli, Aromatic biosynthesis, VII. Accumulation of two derivatives of shikimic acid by bacterial mutants, J. Bacteriol. 1953. August; 66(2): 129-36) was pipetted. This salt solution (Muta Component “A”) was comprised of (1) Milli-Q, 600 mL; (2) dipotassium phosphate, anhyd., 38.5 g; (3) monopotassium phosphate, anhyd. 11.0 g; (4) ammonium sulfate, 5.5 g; (5) trisodium citrate, 1.375 g; and (6) magnesium sulfate, 0.55 g. Appropriate volume of Milli-Q water was added to bring total volume to 1 L. Each component was dissolved one at a time in the above order. The solution was filtered through a 0.22 μm filter to remove sediment at a pH of about 7.3.
To the salt solution, small amounts of DMSO diluted compound was added, not to exceed 500 μl of DMSO. For example, about 100 μl aliquots of the DMSO diluted compound was added until the highest concentration is reached with compound still in solution. […] When the highest concentration of compound was determined, an appropriate volume of sterile Davis Mingioli salts was added to bring the total volume of solution to 17.5 mL. The concentration of compound and DMSO in the test solution was then noted.
The components were then mixed in a 50 mL sterile tube labeled Reaction Mixture as follows: 21.62 mL of A+4.75 ml of B (D-glucose, 40% w/v)+2.38 mL of C (bromocresol purple, 5 mg/ml)+1.19 ml of D (D-biotin, 0.1 mg/ml)+0.060 ml (60 μl) of E (L-histidine, 0.1 mg/ml). The vial was vortexed and then set aside.
The S9 Mixture was prepared by reconstituting the S9 enzymes with 2.1 mL of sterile water. This was labeled “S9F.” In a 50 mL tube labeled S9 Mixture, the following were mixed together (all available from EBIP): 0.4 mL of S9A (MgCl2, 0.4 M and KCl, 1.65 M)+0.09 mL of S9B (glucose-6-phosphate, 1.0 M)+0.81 mL of S9C (nicotine amide di-nucleotide phosphate, 0.1 M)+9.98 mL of S9D (phosphate buffer, pH 7.4)+6.72 mL of S9E (sterile distilled water)+2 mL of S9F (Rate liver extract). The vial was vortexed and then set aside.
Sterile tubes were labeled as follows: Blank, Background I, Background II, Standard Mutagen, Compound 1 (−), Compound 1 (S9+), Compound 2 (−), Compound 2 (S9+), Compound 3 (−), Compound 3 (S9+). Next, about 2.5 mL of the reaction mix was added to each tube. Then, about 2 mL of the S9 mix was added to the Background II and the S9+ compounds. Next, to each of the compound vials, about 8 mL of the prepared compounds was added. The concentration of the compound in the final solution was noted. Then, about 100 μl of the standard mutagen was added to the Standard mutagen vial. (NaN3 for non S9 activation and 2-aminoanthracene with S9 activation). The appropriate volume of sterile water was next added for a final volume of 17.5 mL. Then, about 5 μl of bacteria was added to each tube except the Blank. Each vial was vortexed and poured into a sterile multi-channel pipette boat, and pipette 200 μl per well into the 96 well plate with a multi channel pipetter. The plates were labeled, covered, placed in zip lock bag, and then incubated for 5 days at 37° C.
On day five of the incubation, the plates were removed from the incubator and placed in a laminar flow hood. The Blank was analyzed first. If there were any wells that were yellow, the test was considered contaminated and the results invalid. […]

| Compound | Colormetric Ames test, with S9 | Colormetric Ames test, without S9 |
| --- | --- | --- |
| COC(=O)c1nn(Cc2ccc(Cl)cc2Cl)c2cccc(C)c12 [JWS-2-92, 1-(2,4-dichlorobenzyl)-4-methyl-1H-indazole-3-carboxylic acid methyl ester] | Pass* | Pass* |
| COC(=O)c1nn(Cc2ccc(Cl)cc2Cl)c2cc(OC(F)(F)F)ccc12 [JWS-2-100, 1-(2,4-dichlorobenzyl)-6-trifluoromethoxy-1H-indazole-3-carboxylic acid methyl ester] | Pass* | Pass* |
| O=C(O)c1nn(Cc2ccc(Cl)cc2Cl)c2cc(OC(F)(F)F)ccc12 [JWS-2-102, 1-(2,4-dichlorobenzyl)-6-trifluoromethoxy-1H-indazole-3-carboxylic acid] | Pass* | Pass* |
| NNC(=O)c1nn(Cc2ccc(Cl)cc2Cl)c2cc(OC(F)(F)F)ccc12 [JWS-2-104, 1-(2,4-dichlorobenzyl)-6-trifluoromethoxy-1H-indazole-3-carboxylic acid hydrazide] | Pass* | Pass* |
| COC(=O)/C=C/c1nn(Cc2ccc(Cl)cc2Cl)c2cc(OC(F)(F)F)ccc12 [JWS-2-110, 3-[1-(2,4-dichlorobenzyl)-6-trifluoromethoxy-1H-indazol-3-yl]acrylic acid methyl ester] | Pass* | Pass* |
| O=C(O)/C=C/c1nn(Cc2ccc(Cl)cc2Cl)c2cc(OC(F)(F)F)ccc12 [JWS-2-112, 3-[1-(2,4-dichlorobenzyl)-6-trifluoromethoxy-1H-indazol-3-yl]acrylic acid] | Pass* | Pass* |
| COC(=O)c1nn(Cc2ccc(Cl)cc2Cl)c2cc(OC)ccc12 [JWS-2-120, 1-(2,4-dichlorobenzyl)-6-methoxy-1H-indazole-3-carboxylic acid methyl ester] | Pass* | Pass* |
| COc1ccc2c(C(=O)O)nn(Cc3ccc(Cl)cc3Cl)c2c1 [JWS-2-122, 1-(2,4-dichlorobenzyl)-6-methoxy-1H-indazole-3-carboxylic acid] | Pass* | Pass* |
| COc1ccc2c(/C=C/C(=O)O)nn(Cc3ccc(Cl)cc3Cl)c2c1 [JWS-2-132, 3-[1-(2,4-dichlorobenzyl)-6-methoxy-1H-indazol-3-yl]acrylic acid] | Pass* | Pass* |

— patent US8362031B2, “Lonidamine analogues and treatment of polycystic kidney disease” (University of Kansas, priority 2004, dated 2013)
